Experiments:
[1] = molecular target: T1, Adenosine receptor A2b (Homo sapiens) (UniProt P29275); experiment: Displacement of [3H]DPCPX from human adenosine A2b receptor expressed in HEK293 cells at 1 uM; assay type: cell-based
T1 sequence (whole entry): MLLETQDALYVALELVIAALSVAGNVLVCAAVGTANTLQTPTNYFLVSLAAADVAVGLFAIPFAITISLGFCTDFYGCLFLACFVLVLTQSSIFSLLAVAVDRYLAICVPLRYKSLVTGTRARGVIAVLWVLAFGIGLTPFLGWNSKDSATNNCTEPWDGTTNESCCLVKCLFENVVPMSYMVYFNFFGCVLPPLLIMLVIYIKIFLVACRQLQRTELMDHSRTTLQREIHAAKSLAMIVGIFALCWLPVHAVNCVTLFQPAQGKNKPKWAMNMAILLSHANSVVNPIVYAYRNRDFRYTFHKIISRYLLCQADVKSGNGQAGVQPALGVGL

[2] = molecular target: T2, Adenosine receptor A2a (Homo sapiens, UniProt P29274); experiment: Displacement of [3H]ZM241385 from human adenosine A2a receptor expressed in human HeLa cells at 1 uM; assay type: cell-based
[3] = molecular target: T3, Adenosine receptor A2b (Homo sapiens, UniProt P29275); experiment: Binding affinity to human adenosine A2b receptor expressed in HEK293 cells; assay type: cell-based
T3 sequence (P29275 whole entry): T1 sequence (whole entry)

[4] = molecular target: T2, Adenosine receptor A2a; experiment: Binding affinity to human adenosine A2a receptor expressed in human HeLa cells; assay type: cell-based
[5] = molecular target: T4, Adenosine receptor A1 (Rattus norvegicus, UniProt P25099); experiment: Binding affinity to rat cortex adenosine A1 receptor
T4 sequence (P25099 whole entry): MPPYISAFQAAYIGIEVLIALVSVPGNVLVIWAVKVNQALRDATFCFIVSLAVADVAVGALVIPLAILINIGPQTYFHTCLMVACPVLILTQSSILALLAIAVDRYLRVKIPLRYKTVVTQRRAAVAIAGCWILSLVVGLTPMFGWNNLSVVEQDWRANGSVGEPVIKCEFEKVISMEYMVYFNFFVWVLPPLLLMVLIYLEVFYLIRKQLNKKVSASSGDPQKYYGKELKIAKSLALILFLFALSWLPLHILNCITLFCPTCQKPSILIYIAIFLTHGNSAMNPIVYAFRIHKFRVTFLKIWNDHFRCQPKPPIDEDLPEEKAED

[6] = molecular target: T5, Adenosine receptor A3 (Homo sapiens, UniProt P0DMS8); experiment: Binding affinity to human adenosine A3 receptor expressed in human HeLa cells; assay type: cell-based
T5 sequence (P0DMS8 whole entry): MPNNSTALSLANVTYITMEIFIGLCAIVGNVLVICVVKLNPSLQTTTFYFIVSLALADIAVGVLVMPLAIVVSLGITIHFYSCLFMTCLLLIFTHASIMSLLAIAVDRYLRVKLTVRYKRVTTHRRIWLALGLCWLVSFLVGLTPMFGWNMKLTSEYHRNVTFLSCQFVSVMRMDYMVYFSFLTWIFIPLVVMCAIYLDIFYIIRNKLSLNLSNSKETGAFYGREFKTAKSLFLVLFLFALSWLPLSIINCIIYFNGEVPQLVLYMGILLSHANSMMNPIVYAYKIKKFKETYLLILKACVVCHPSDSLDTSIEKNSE

[7] = molecular target: T6, Adenosine receptor A3 (Homo sapiens) (UniProt P0DMS8); experiment: Displacement of [3H]NECA from human adenosine A3 receptor expressed in human HeLa cells at 1 uM; assay type: cell-based
T6 sequence (whole entry): T5 sequence (P0DMS8 whole entry)

[8] = molecular target: T7, Adenosine receptor A1 (Rattus norvegicus) (UniProt P25099); experiment: Displacement of [3H]DPCPX from rat cortex adenosine A1 receptor at 1 uM
T7 sequence (whole entry): T4 sequence (P25099 whole entry)

T2 sequence (P29274 whole entry): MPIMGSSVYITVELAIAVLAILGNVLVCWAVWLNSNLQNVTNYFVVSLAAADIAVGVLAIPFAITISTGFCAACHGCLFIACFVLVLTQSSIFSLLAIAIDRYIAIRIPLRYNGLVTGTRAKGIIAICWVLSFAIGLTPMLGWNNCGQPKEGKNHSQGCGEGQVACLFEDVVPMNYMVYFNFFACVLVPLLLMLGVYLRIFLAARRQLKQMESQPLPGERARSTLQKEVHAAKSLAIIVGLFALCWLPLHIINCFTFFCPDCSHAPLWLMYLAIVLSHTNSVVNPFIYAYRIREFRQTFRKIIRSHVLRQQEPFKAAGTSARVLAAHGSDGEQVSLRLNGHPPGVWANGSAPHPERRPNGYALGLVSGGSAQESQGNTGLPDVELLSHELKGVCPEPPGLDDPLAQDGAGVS

SMILES	Activity [1]	Activity [2]	Ki [3]	Ki [4]	further results
CCn1c(=O)c2c(nc(-c3ccc(-c4ccccc4)cc3)n2C)n(CCCOC)c1=O	6%	5%	–	–	–
CCn1c(=O)c2[nH]c(-c3ccc(OCC(=O)Nc4nc5ccccc5[nH]4)cc3)nc2n(CCCOC)c1=O	–	–	93.3 nM	204 nM	–
CCn1c(=O)c2[nH]c(-c3ccc(OCC(=O)Nc4ccc(F)cc4)cc3)nc2n(CCCOC)c1=O	–	–	3.02 nM	56.2 nM	Ki [5]: 20.9 nM; Ki [6]: 955 nM
CCCn1c(=O)c2[nH]c(C3CCCC3)nc2n(CCCOC)c1=O	62%	84%	–	–	–
CCn1c(=O)c2[nH]c(-c3ccc(OCC(=O)N4CCc5ccccc5C4)cc3)nc2n(CCCOC)c1=O	–	–	49 nM	229 nM	Ki [5]: 100 nM
CCn1c(=O)c2c(nc(-c3ccco3)n2C)n(CCCOC)c1=O	1%	14%	–	–	–
CCn1c(=O)c2[nH]c(-c3ccc(OCC(=O)Nc4ccc(C#N)cc4)cc3)nc2n(CCCOC)c1=O	–	–	9.12 nM	112 nM	Ki [5]: 676 nM; Ki [6]: 398 nM
CCn1c(=O)c2[nH]c(-c3ccc(OCC(=O)Nc4ccc(O)cc4)cc3)nc2n(CCCOC)c1=O	–	–	15.5 nM	417 nM	Activity [7]: 65%; Ki [5]: 174 nM
CCn1c(=O)c2[nH]c(-c3ccc(OCC(=O)Nc4ccc(C(C)=O)cc4)cc3)nc2n(CCCOC)c1=O	–	–	11.7 nM	148 nM	Activity [8]: 68%; Ki [6]: 708 nM
CCn1c(=O)c2[nH]c(-c3ccc(OCC(=O)Nc4cccnc4)cc3)nc2n(CCCOC)c1=O	–	–	33.9 nM	759 nM	Ki [5]: 162 nM; Ki [6]: 95.5 nM
CCn1c(=O)c2[nH]c(-c3ccc(OCC(=O)Nc4ccc(Br)cc4)cc3)nc2n(CCCOC)c1=O	–	–	2.88 nM	97.7 nM	Ki [5]: 100 nM; Ki [6]: 1290 nM
CC[S+]([O-])CCn1c(=O)c2[nH]c(Cc3ccco3)nc2n(CCCOC)c1=O (configuration not stated)	0%	12%	–	–	–
CCS(=O)(=O)CCn1c(=O)c2[nH]c(Cc3ccco3)nc2n(CCCOC)c1=O	15%	6%	–	–	–
CCn1c(=O)c2[nH]c(Cc3ccco3)nc2n(CCCOC)c1=O	17%	11%	–	–	–
CCn1c(=O)c2[nH]c(-c3ccc(OCC(=O)NC4CCCC4)cc3)nc2n(CCCOC)c1=O	–	–	77.6 nM	95.5 nM	–
CCn1c(=O)c2[nH]c(-c3ccc(OCC(=O)Nc4ccon4)cc3)nc2n(CCCOC)c1=O	–	–	20.9 nM	214 nM	Ki [5]: 95.5 nM; Ki [6]: 933 nM
CCn1c(=O)c2[nH]c(-c3ccc(OCC(=O)Nc4ccc(N(C)C)cc4)cc3)nc2n(CCCOC)c1=O	–	–	174 nM	1780 nM	Ki [5]: 871 nM; Ki [6]: 209 nM
CCSCCn1c(=O)c2[nH]c(Cc3ccco3)nc2n(CCCOC)c1=O	–	1%	2000 nM	–	–

Further lines, with some results ahead:

Activity [1]	Activity [2]	Ki [3]	Ki [4]	SMILES	further results
–	–	138 nM	490 nM	CCn1c(=O)c2[nH]c(-c3ccco3)nc2n(CCCOC)c1=O	–
77%	25%	–	–	CCCn1c(=O)c2[nH]c(-c3cccs3)nc2n(CCCOC)c1=O	–
70%	54%	–	–	COCCCn1c(=O)n(CCOC)c(=O)c2[nH]c(-c3ccccc3)nc21	–
11%	18%	–	–	CC[S+]([O-])CCn1c(=O)c2[nH]c(-c3ccccc3)nc2n(CCCOC)c1=O (configuration not stated)	–
21%	51%	–	–	CCOCCn1c(=O)c2[nH]c(-c3ccccc3)nc2n(CCCOC)c1=O	–
49%	0%	–	–	CCCCCn1c(=O)c2[nH]c(-c3ccccc3)nc2n(CCCOC)c1=O	–
0%	20%	–	–	CCS(=O)(=O)CCn1c(=O)c2[nH]c(-c3ccccc3)nc2n(CCCOC)c1=O	–
–	–	148 nM	398 nM	CCCn1c(=O)c2[nH]c(-c3ccc[nH]3)nc2n(CCCOC)c1=O	–
–	–	126 nM	219 nM	CCn1c(=O)c2[nH]c(-c3cccs3)nc2n(CCCOC)c1=O	–
66%	14%	–	–	CCCn1c(=O)c2[nH]c(-c3ccc(-c4ccccc4)cc3)nc2n(CCCOC)c1=O	–
–	–	15.5 nM	170 nM	CCn1c(=O)c2[nH]c(-c3ccc(OCC(=O)Nc4ccccn4)cc3)nc2n(CCCOC)c1=O	Activity [7]: 69%; Activity [8]: 2%
–	–	70.8 nM	525 nM	CCn1c(=O)c2[nH]c(-c3ccc(-c4ccccc4)cc3)nc2n(CCCOC)c1=O	–
30%	25%	–	–	COCCCn1c(=O)n(CC(C)C)c(=O)c2[nH]c(-c3ccccc3)nc21	–
–	–	85.1 nM	209 nM	CCn1c(=O)c2[nH]c(-c3ccc[nH]3)nc2n(CCCOC)c1=O	–
–	–	490 nM	5010 nM	CCSCCn1c(=O)c2[nH]c(-c3ccco3)nc2n(CCCOC)c1=O	–
–	–	3.02 nM	87.1 nM	CCn1c(=O)c2[nH]c(-c3ccc(OCC(=O)Nc4ccccc4)cc3)nc2n(CCCOC)c1=O	Ki [5]: 36.3 nM; Ki [6]: 2510 nM
67%	49%	–	–	CCn1c(=O)c2[nH]c(-c3ccccc3)nc2n(CCCOC)c1=O	–
70%	26%	–	–	CCCn1c(=O)c2[nH]c(CCCc3ccccc3)nc2n(CCCOC)c1=O	–
–	–	324 nM	339 nM	CCCn1c(=O)c2[nH]c(-c3ccccc3)nc2n(CCCOC)c1=O	–
41%	8%	–	–	CCSCCn1c(=O)c2[nH]c(-c3ccccc3)nc2n(CCCOC)c1=O	–
